Data as given in ChEMBL document CHEMBL3301361, “Experimental in vitro DMPK and physicochemical data on a set of publicly disclosed compounds”.
In brackets after ≈: the same amount, converted by molar mass.

How the values were obtained:
physchem [1] = test: physchem
in vitro [2] = settings: human
physchem [3] = settings: octan-1-ol/water
physchem [4] = settings: pH 7.4 buffer
in vitro [5] = settings: human, plasma, PPB
in vitro [6] = settings: SD, HW or BN, rat, plasma
in vitro [7] = settings: hepatocytes
in vitro [8] = settings: human, hepatocytes

Compound	pKa (physchem [1])	logD (physchem [3]; pH 7.4, LogD7.4)	other results
CCOC(=O)N1CCC(Nc2cc(OC)ccn2)CC1	7.2		microsomal CLint (in vitro [2]; liver microsomes): 4 µL/min/mg
CCOC(=O)N1CCC(Nc2ccccn2)CC1	6.6		
COc1ccnc(NC2CCN(C(=O)c3ccccc3)CC2)c1	6.85	2.06	microsomal CLint (in vitro [2]; liver microsomes): < 3 µL/min/mg
COc1ccnc(NC2CCN(C(=O)c3ccc(Cl)cc3)CC2)c1	7.2	2.82	
CC(C)(C)NC(=O)[C@@H]1C[C@@H]2CCCC[C@@H]2CN1C[C@@H](O)[C@H](Cc1ccccc1)NC(=O)[C@H](CC(N)=O)NC(=O)c1ccc2ccccc2n1	7.14		solubility thermodynamic (physchem [4]): 36.3 µM (≈ 24.4 µg/mL); fraction unbound at 5 h (in vitro [5]): 0.0114; fraction unbound at 5 h (in vitro [6]): 0.0048
c1ccc(SCc2ccccn2)cc1	3.8		
NC1=NC(c2cccs2)Nc2cccc(F)c21 (centres undefined)	8.73	0.91	
Cc1cc(N)nc(CCNC(=O)c2ccc(C#N)cc2)c1	7.1	1.62	solubility thermodynamic (physchem [4]): 64.6 µM (≈ 18.1 µg/mL)
CCOC(=O)N1CCC(Nc2cc(Cl)ccn2)CC1	5.3		
C[C@H]1CN=C(N)c2sccc2O1	11		microsomal CLint (in vitro [2]; microsomes): 7 µL/min/mg
COc1ccc(CNc2cc(C)ccn2)c(O)c1	6.8		
COc1ccccc1CNc1cc(C)ccn1	7.1	3.28	
Cc1ccnc(NCc2ccccc2O)c1	6.8	3.35	
c1ccc(CSc2nc3ccccc3[nH]2)cc1	4.2		
Cc1ccnc(NCc2c(O)ccc3ccccc23)c1	6.6		
O=C(CO)N1CCC(c2[nH]nc(-c3ccc(Cl)cc3F)c2-c2ccncn2)CC1		1.79	solubility thermodynamic (physchem [4]): 7.8 µM (≈ 3.24 µg/mL); fraction unbound at 5 h (in vitro [5]): 0.253; fraction unbound at 5 h (in vitro [6]): 0.324; microsomal CLint (in vitro [2]; microsomes): < 3 µL/min/mg; hepatocyte CLint (in vitro [7]): < 3 µL/min/1e6 cells; hepatocyte CLint (in vitro [8]): < 3 µL/min/1e6 cells
O=C(O)COc1ccc(C(F)(F)F)cc1CN1CCN(C(=O)c2ccccc2)CC1	6.9		microsomal CLint (in vitro [2]; liver microsomes): 4.7 µL/min/mg; hepatocyte CLint (in vitro [7]): < 3 µL/min/1e6 cells
O=C(O)COc1ccc(Cl)cc1CN1CCC(S(=O)(=O)c2ccccc2)CC1	7.8	0.48	
CCOC(=O)N1CCC2(CC1)N=C(N)c1sccc1N2	10.5		
N#Cc1ccc(Cl)cc1O[C@H](CCN)c1ccccc1	10.3	0.76	microsomal CLint (in vitro [2]; liver microsomes): 4 µL/min/mg
c1ccc(CSc2nnc([C@@H]3CCCN3)o2)cc1	7.03		
CCOC(=O)N1CCC2(CC1)N=C(N)c1c(F)cccc1N2	9.1		
N#Cc1ccc(C(=O)N2CCC3(CC2)N=C(N)c2c(F)ccc(F)c2N3)cc1	8.15	0.86	fraction unbound at 5 h (in vitro [5]): 0.285

Compound	pKa (physchem [1])	logD (physchem [3]; pH 7.4, LogD7.4)	other results
NC1=NC(c2ccccc2)Nc2ccccc21 (centres undefined)	9.83		
NCC(Oc1cc(Cl)ccc1Cl)c1ccccc1 (centres undefined)	8.5		
Cc1ccnc(NCc2ccccc2)c1	7	3.08	
O=C(O)/C=C/c1cccnc1	4.4		
Nc1ccc(OCC(=O)O)c(-c2ccccc2)c1	5.1		microsomal CLint (in vitro [2]; liver microsomes): < 3 µL/min/mg
CCC(CCNC)Oc1cc(Cl)ccc1C#N (centres undefined)	10.1	0.38	microsomal CLint (in vitro [2]; liver microsomes): < 3 µL/min/mg
CNCC[C@@H](Oc1cc(Cl)ccc1C#N)c1ccccc1	9.9		hepatocyte CLint (in vitro [7]): > 150 µL/min/1e6 cells
CNCC[C@@H](Oc1cc(C(F)(F)F)ccc1C#N)c1ccccc1	10.4	1.3	microsomal CLint (in vitro [2]; microsomes): < 3 µL/min/mg
Cc1ccc(C#N)c(S[C@H](CCN)c2ccccc2)n1	9.8		
CN(C(=O)Cc1ccc(S(=O)(=O)N(C)C)cc1)C1CCN(CCC(c2ccccc2)c2ccccc2)CC1	8.1		
CC(=O)Nc1ccc(CNc2[nH]nc3ccnc(Oc4ccccc4)c23)cc1	3.2	3.03	microsomal CLint (in vitro [2]; liver microsomes): 12 µL/min/mg
CCCCc1nc2c(N)nc3ccccc3c2n1CC(C)C	7.3	3.82	fraction unbound at 5 h (in vitro [5]): 0.062; fraction unbound at 5 h (in vitro [6]): 0.0307; microsomal CLint (in vitro [2]; liver microsomes): < 3 µL/min/mg
O=C(CN1C2=NCCN2c2ccccc21)c1ccc(Cl)cc1	9.1	2.62	fraction unbound at 5 h (in vitro [5]): 0.339; microsomal CLint (in vitro [2]; microsomes): 4 µL/min/mg
COc1cccc(C(=O)NCCN2CCC(Oc3ccc(Cl)c(Cl)c3)CC2)c1	7.4		solubility thermodynamic (physchem [4]): 9.5 µM (≈ 4.02 µg/mL); fraction unbound at 5 h (in vitro [5]): 0.0008; microsomal CLint (in vitro [2]; liver microsomes): 9 µL/min/mg
COc1ccc(C2(c3cccc(-c4cncnc4)c3)N=C(C)C(N)=N2)cc1C (centres undefined)	5.83		fraction unbound at 5 h (in vitro [5]): 0.062; fraction unbound at 5 h (in vitro [6]): 0.271
CCc1nc2c(C)cc(C)nc2[nH]1	5.5		
COc1cccc2c1c(NS(=O)(=O)c1ccc(Cl)s1)nn2Cc1cccc(CNC(=O)[C@@H]2COCCN2)c1		1.61	solubility thermodynamic (physchem [4]): 27.5 µM (≈ 15.8 µg/mL); fraction unbound at 5 h (in vitro [5]): 0.016; fraction unbound at 5 h (in vitro [6]): 0.0156; microsomal CLint (in vitro [2]; microsomes): 40.5 µL/min/mg; hepatocyte CLint (in vitro [7]): 26 µL/min/1e6 cells; hepatocyte CLint (in vitro [8]): 20 µL/min/1e6 cells
O=C(NCC12CC3CC(CC(C3)C1)C2)c1cc(CC2CCNCC2)ccc1Cl	10.1	1.49	fraction unbound at 5 h (in vitro [5]): 0.0872
O=C(c1ccccc1)N1CCN(Cc2ccccc2)CC1	6.2		
C[C@H](CO)Nc1nc(SCc2cccc(F)c2F)nc2nc(N)cnc12	4.2	2.89	fraction unbound at 5 h (in vitro [5]): 0.0447; microsomal CLint (in vitro [2]; liver microsomes): 12 µL/min/mg
O=S(=O)(c1ccccc1)N1CCN(Cc2ccccc2)CC1	5.6		microsomal CLint (in vitro [2]; liver microsomes): 64 µL/min/mg; hepatocyte CLint (in vitro [7]): > 150 µL/min/1e6 cells
Cc1ncc[nH]1	7.8		
CCc1ncc[nH]1	7.8		

Compound	pKa (physchem [1])	logD (physchem [3]; pH 7.4, LogD7.4)	other results
Nc1nc2ccccc2[nH]1	7.2		microsomal CLint (in vitro [2]; liver microsomes): < 3 µL/min/mg
NC1=Nc2cccc3cccc(c23)N1	7.6		
NC1=NC(c2ccc(F)cc2)Nc2cccc(F)c21 (centres undefined)	9		
NC1=NC(c2ccco2)Nc2c(F)ccc(F)c21 (centres undefined)	8.2	1.2	
c1ccc(CSc2nc3ccccc3o2)nc1	4.3		
COc1ccc(OC)c(CNc2[nH]nc3cccc(Oc4ccccc4)c23)c1	3.8		microsomal CLint (in vitro [2]; liver microsomes): 11 µL/min/mg
CCOC(=O)N1CCC2(CC1)N=C(N)c1c(Cl)cccc1N2	9		
N#Cc1ccc(C(=O)N2CCC3(CC2)N=C(N)c2c(F)cccc2N3)cc1	9	0.66	
NC1=NC(c2ccco2)Nc2ccccc21 (centres undefined)	9.13		
CON(C)C(=O)c1c(Cn2c(C)nc(Cl)c2Cl)sc2c1c(=O)n(C)c(=O)n2CC(C)C	2.7	2.23	solubility thermodynamic (physchem [4]): 513 µM (≈ 250 µg/mL)
N#Cc1ccc(C(=O)N2CCC3(CC2)N=C(N)c2c(F)ccc(F)c2N3)cn1	8.4	0.79	fraction unbound at 5 h (in vitro [5]): 0.134
Cc1nc(N)sc1C	6.3		
Cc1nc2c(OCc3ccccc3)cccn2c1CC#N	5.6		
NCCc1ccc(Cl)cc1	10.1		
NCCc1ccc([N+](=O)[O-])cc1	9.4		
O=C(NCC12CC3CC(CC(C3)C1)C2)c1cc(OCCCNCCCO)ccc1Cl	9.5	1.41	microsomal CLint (in vitro [2]; liver microsomes): 27 µL/min/mg
Cc1ccc(C(=O)N2CC3CNCC(C2)O3)cc1NC(=O)CC12CC3CC(CC(C3)C1)C2	7.18	2.12	microsomal CLint (in vitro [2]; microsomes): 71.2 µL/min/mg; hepatocyte CLint (in vitro [7]): 16.2 µL/min/1e6 cells
O=C(NCC12CC3CC(CC(C3)C1)C2)c1cc(OC2CCNCC2)ncc1Cl	9.1	1.56	
O=C(NCC12CC3CC(CC(C3)C1)C2)c1ccnc(N2CCNCC2)c1Cl	8.7		microsomal CLint (in vitro [2]; liver microsomes): 73 µL/min/mg; hepatocyte CLint (in vitro [7]): 7.2 µL/min/1e6 cells
Cc1cc(C)nc(N)c1	7.7	0.85	
Cc1ccnc(N)c1N	7.2		
NC1=NC(C2CC2)Cc2ccccc21 (centres undefined)	> 11		
NC1=NC(C2CC2)Cc2ccsc21 (centres undefined)	> 11		

Compound	pKa (physchem [1])	logD (physchem [3]; pH 7.4, LogD7.4)	other results
Cn1c([S+]([O-])Cc2ccccn2)nc2ccccc21 (centres undefined)	2.6		
CCN(CC)CCNC(=O)c1ccc(NC(C)=O)cc1 [ACECAINIDE]	9.14		
CCN(CC)C(C)C(=O)c1ccccc1 (centres undefined) [DIETHYLPROPION]	8.8		logD (physchem [3]; pH 7.4): 1.18
CN(C)CCn1cnc2c1c(=O)n(C)c(=O)n2C [DIMETHAZAN]	7.5		
CN(C)CCC=C1c2ccccc2COc2ccccc21 [DOXEPIN]	8.5	2.15	
CCc1cc(C(N)=S)ccn1 [ETHIONAMIDE]	4.4	1.52	fraction unbound at 5 h (in vitro [6]): 0.54
COc1ccc2c3c1O[C@H]1C[C@@H](O)C=C[C@@]31CCN(C)C2 [GALANTAMINE]	8.21		
O=C(CCCN1CCC(O)(c2ccc(Cl)cc2)CC1)c1ccc(F)cc1 [HALOPERIDOL]	8.75	2.67	solubility thermodynamic (physchem [4]): 50.1 µM (≈ 18.8 µg/mL); fraction unbound at 5 h (in vitro [6]): 0.186
CN1CCC(=C2c3ccccc3CC(=O)c3sccc32)CC1 [KETOTIFEN]	9		
CC12CC3CC(C)(C1)CC(N)(C3)C2 [MEMANTINE]	10.7	0.06	
Cc1ncc([N+](=O)[O-])n1CCO [METRONIDAZOLE]	2.51	-0.11	
COc1ccc(OC)c(C(O)CNC(=O)CN)c1 (centres undefined) [MIDODRINE]	7.59		
c1ccc2c(CC3=NCCN3)cccc2c1 [NAPHAZOLINE]	10.3		
C=CCOc1ccccc1OCC(O)CNC(C)C (centres undefined) [OXPRENOLOL]	9.69	0.2	
CCOCc1nc2c(N)nc3ccccc3c2n1CC(C)(C)O [RESIQUIMOD]	7.1	1.69	solubility thermodynamic (physchem [4]): 417 µM (≈ 131 µg/mL); fraction unbound at 5 h (in vitro [6]): 0.574
Cc1nc2n(c(=O)c1CCN1CCC(c3noc4cc(F)ccc34)CC1)CCCC2 [RISPERIDONE]	8.49		logD (physchem [3]; pH 7.4): 2.05; fraction unbound at 5 h (in vitro [6]): 0.0544
CC(C)(C)c1ccc(C(O)CCCN2CCC(C(O)(c3ccccc3)c3ccccc3)CC2)cc1 (centres undefined) [TERFENADINE]	8.8	3.99	solubility thermodynamic (physchem [4]): 5.4 µM (≈ 2.55 µg/mL); fraction unbound at 5 h (in vitro [5]): 0.0084
c1ccc2c(c1)CCCC2C1=NCCN1 (centres undefined) [TETRAHYDROZOLINE]	10.6		
c1ccc(CC2=NCCN2)cc1 [TOLAZOLINE]	10.7		
Cc1cc(C(C)(C)C)cc(C)c1CC1=NCCN1 [XYLOMETAZOLINE]	10.6		
